Experimental data taken from patent publication US20240197761A1, “FUCOSYLATION AND IMMUNE MODULATION IN CANCER” (H. LEE MOFFITT CANCER CENTER AND RESEARCH INSTITUTE, INC., priority 2021, published 2024).

Test system: SW1 tumors
Assay: Control vs. L-fucose ± FTY720 model: tumor growth and flow cytometric profiling of tumors and lymph nodes (Table 1)
Assay type: in vivo, C3H/HeN mice
Procedure: FIGS. 15A-15E Lymph node egress is necessary for L-fucose-triggered tumor suppression; L-fucose increases intratumoral CD4+T stem and central memory cells. (a) Immune subpopulations markers use to profile by flow cytometry. (b) Volumetric growth curves for SW1 tumors in C3H/HeN mice fed without (Ctl) or with L-fucose (LF) and treated with FTY720 (Ctl mice administered FTY720: (FTY); LF-supplemented mice administered FTY720: (L+F)). FTY720 was administered at 20 μg per mouse every 2 days starting on Day 12, just prior to the initiation of LF (c) Pie charts showing ratios of intratumoral or lymph node-resident CD4+ or CD8+T cell subpopulations, as well as DC subtypes from mice at Day 14, 28, and 42 (each pie chart represents 4-5 mice). Assessment of cytotoxic CD4+ T cell populations (CRTAM+) and cytotoxic CD8+ T cell populations (GrzB+) from tumors at Day 28 (d) and Day 42 (e). The tumor growth curves are means±SEM from ≥7 mice per group. *=p<0.05.
Tumors of SW1 or SM1 melanoma cells from […] or C57BL/6 mice, respectively) were digested using 1× tumor digest buffer (0.5 mg/mL Collagenase I, 0.5 mg/mL Collagenase IV, 0.25 mg/mL Hyalyronidase V, 0.1 mg/mL DNAse I in HBSS (Millipore Sigma (St. Louis, MO)). Tumors were homogenized using the Miltenyi MACs dissociator. Red blood cells were lysed using ACK lysis buffer (Life Technologies, (Grand Island, NY)). Tumor homogenate cells were counted using a standard hemocytometer.
Total TILs were gated first to single cells (based on forward scatter height vs width, followed by side scatter height vs. width). Live cells were gated from the Zombie negative population from the population above. TILs were gated based on splenocyte size from a control spleen. Individual immune subpopulations were sub-gated from the total TIL population using the following staining criteria: CD3+ for CD3+ T cells; CD3+/CD4+/CD8− for CD4+T cells; CD3+/CD4−/CD8+ for CD8+ T cells, CD11c+/CD11b+ for DCs; either NK1.1 (for C57/BL6 mice) or DX5 (for C3H/HeJ) for NK cells; CD11b+/GR1+ for MDSC-like cells; and F4/80+ for macrophages. Single-cell suspensions from tumor and spleen tissue were stained with Live/Dead Zombie NIR (Biolegend, (San Diego, CA)) at 1:1,000 in PBS for 20 min. Cell suspensions were spun down and stained with the following with antibodies at 0.5 μg/ml per antibody: APC anti-mouse CD3, Pacific Blue anti-mouse CD4, BV785 anti-mouse CD8, PerCP anti-mouse CD25, FITC anti-mouse F4/80, PeCy7 anti-mouse CD11c, PE anti-mouse NK1.1 or PE anti-mouse DX5, and PerCP-Cy5.5 anti-mouse CD11 b. After staining, the cells were washed and fixed (2% formaldehyde), followed by another wash and flow cytometric analysis. The compensation controls were prepared using 0.5 μg/mL of each antibody with UltraComp eBeads, (ThermoFisher Scientific (Waltham, MA)). All samples were subject to flow cytometric profiling using a LSR Flow Cytometer (BD Biosciences (San Jose, CA)) and analysis as indicated using FlowJo software (BD Biosciences (San Jose, CA)).
SW1 or SM1 mouse melanoma cells were injected into syngeneic C3H/HeN (or NSG) female or C57BL/6 male mice, respectively. Cells were injected as follows: parental SW1 cells for FIG. 13A; parental SM1 cells for FIG. 13E; SW1 cells stably expressing either empty vector (EV) or mouse fucose kinase (mFuk) for FIG. 1L; and parental SW1 cells for FIG. 13M. FTY720 was administered at 20 μg every 2 days starting on Day 12, just prior to the initiation of LF, until endpoint.

C[C@H](O)[C@@H](O)[C@@H](O)[C@H](O)C=O [L-fucose]
cytotoxic CD4+T cells (CRTAM+) (Day 28): transiently but significantly increased | CD4 central memory, average # of cells (Day 28, lymph nodes): 2289.20 per 10^6 cells of total tumor | CD4 effector memory, average # of cells (Day 28, lymph nodes): 445.15 per 10^6 cells of total tumor | CD4 naïve, average # of cells (Day 28, lymph nodes): 9286.89 per 10^6 cells of total tumor | CD4 stem central memory, average # of cells (Day 28, lymph nodes): 53601.81 per 10^6 cells of total tumor | CD8 central memory, average # of cells (Day 28, lymph nodes): 295.92 per 10^6 cells of total tumor | CD8 effector memory, average # of cells (Day 28, lymph nodes): 888.80 per 10^6 cells of total tumor | CD8 naïve, average # of cells (Day 28, lymph nodes): 18072.26 per 10^6 cells of total tumor | CD8 stem central memory, average # of cells (Day 28, lymph nodes): 980.96 per 10^6 cells of total tumor | cDC1, average # of cells (Day 28, lymph nodes): 359.10 per 10^6 cells of total tumor | cDC2, average # of cells (Day 28, lymph nodes): 743.69 per 10^6 cells of total tumor | moDC, average # of cells (Day 28, lymph nodes): 37.66 per 10^6 cells of total tumor | CD4 central memory, average # of cells (Day 28, tumors): 6.04 per 10^6 cells of total tumor | CD4 effector memory, average # of cells (Day 28, tumors): 568.19 per 10^6 cells of total tumor | CD4 naïve, average # of cells (Day 28, tumors): 30.44 per 10^6 cells of total tumor | CD4 stem central memory, average # of cells (Day 28, tumors): 5.59 per 10^6 cells of total tumor | CD8 central memory, average # of cells (Day 28, tumors): 1.24 per 10^6 cells of total tumor | CD8 effector memory, average # of cells (Day 28, tumors): 108.29 per 10^6 cells of total tumor | CD8 naïve, average # of cells (Day 28, tumors): 34.60 per 10^6 cells of total tumor | CD8 stem central memory, average # of cells (Day 28, tumors): 0.00 per 10^6 cells of total tumor | cDC1, average # of cells (Day 28, tumors): 2301.44 per 10^6 cells of total tumor | cDC2, average # of cells (Day 28, tumors): 10732.04 per 10^6 cells of total tumor | moDC, average # of cells (Day 28, tumors): 20903.90 per 10^6 cells of total tumor | CD4 central memory, average # of cells (Day 42, lymph nodes): 1741.12 per 10^6 cells of total tumor | CD4 effector memory, average # of cells (Day 42, lymph nodes): 5032.79 per 10^6 cells of total tumor | CD4 naïve, average # of cells (Day 42, lymph nodes): 105779.76 per 10^6 cells of total tumor | CD4 stem central memory, average # of cells (Day 42, lymph nodes): 1587.46 per 10^6 cells of total tumor | CD8 central memory, average # of cells (Day 42, lymph nodes): 1741.12 per 10^6 cells of total tumor | CD8 effector memory, average # of cells (Day 42, lymph nodes): 5032.79 per 10^6 cells of total tumor | CD8 naïve, average # of cells (Day 42, lymph nodes): 105779.76 per 10^6 cells of total tumor | CD8 stem central memory, average # of cells (Day 42, lymph nodes): 1587.46 per 10^6 cells of total tumor | cDC1, average # of cells (Day 42, lymph nodes): 2141.34 per 10^6 cells of total tumor | cDC2, average # of cells (Day 42, lymph nodes): 4375.69 per 10^6 cells of total tumor | moDC, average # of cells (Day 42, lymph nodes): 1201.44 per 10^6 cells of total tumor | CD4 central memory, average # of cells (Day 42, tumors): 38.18 per 10^6 cells of total tumor | CD4 effector memory, average # of cells (Day 42, tumors): 111.09 per 10^6 cells of total tumor | CD4 naïve, average # of cells (Day 42, tumors): 82.01 per 10^6 cells of total tumor | CD4 stem central memory, average # of cells (Day 42, tumors): 16.67 per 10^6 cells of total tumor | CD8 central memory, average # of cells (Day 42, tumors): 13.46 per 10^6 cells of total tumor | CD8 effector memory, average # of cells (Day 42, tumors): 246.44 per 10^6 cells of total tumor | CD8 naïve, average # of cells (Day 42, tumors): 109.29 per 10^6 cells of total tumor | CD8 stem central memory, average # of cells (Day 42, tumors): 0.00 per 10^6 cells of total tumor | cDC1, average # of cells (Day 42, tumors): 648.96 per 10^6 cells of total tumor | cDC2, average # of cells (Day 42, tumors): 78.44 per 10^6 cells of total tumor | moDC, average # of cells (Day 42, tumors): 169.08 per 10^6 cells of total tumor | intratumoral CD4+T central and effector memory subpopulations (FIG. 15c): increases | intratumoral monocyte-derived DCs (moDCs) (FIG. 15c): significantly increased | lymph node cDC2s (FIG. 15c): significantly increased | L-fuc-triggered tumor suppression (with FTY720 (inhibition of lymph node egress)): completely abrogated
